PMC7580251 (Clinical cancer research : an official journal of the …, 2017)

Tests used:
patients = settings: cited from earlier work
[1] = test system: recurrent, platinum-resistant ovarian cancer; settings: cited from earlier work
[2] = test system: poly(ADP-ribose) (PAR) levels in peripheral blood mononuclear cells; assay: PAR levels in PBMCs by sandwich ELISA; assay type: in vivo, human; settings: topotecan alone, Day 30 (Cycle 2 Day 2); of 20 quantifiable pairs
[3] = Plasma pharmacokinetics of veliparib and topotecan; assay type: in vivo, human; settings: for half-life / AUC(0-t): human, plasma; for AUC(0-t): oral
[4] = daily 1-hour infusion for 5 consecutive days, recurrent platinum-resistant ovarian cancer

## O=C(c1cc(Cc2n[nH]c(=O)c3ccccc23)ccc1F)N1CCN(C(=O)C2CC2)CC1 [olaparib]
patients; per dose, twice daily days 1–5, with irinotecan every two weeks
  RP2D of the combination, olaparib dose: 50 mg

## CC[C@@]1(O)C(=O)OCc2c1cc1n(c2=O)Cc2cc3c(CN(C)C)c(O)ccc3nc2-1 [topotecan]
[1]; [4]
  median overall survival: 57 weeks
  overall response rate: 17%
[1]; daily x 5 topotecan
  women with myelosuppression: up to 75%
[1]; phase II, days 1, 8, 15 of a 28-day cycle, platinum refractory/resistant ovarian cancer
  response rate: 18%
[1]; phase II, days 1, 8, 15 of a 28-day cycle, myelosuppression mild
  grade 4 toxicities: no grade 4 toxicities observed
[2]
  sample pairs with decreased PAR levels: 7
  sample pairs with increased PAR levels: 11
  sample pairs with unchanged PAR levels: 2
[3]; iv
  half-life: 2.7 ± 0.6 h
[3]; topotecan administered alone on Cycle 2, iv
  plasma clearance, mean (± SD): 10.1 ± 3.8 L/hr/m^2
patients; weekly topotecan (days 2, 9 and 16)
  single-agent MTD: 4 mg/m^2

## C[C@]1(c2nc3c(C(N)=O)cccc3[nH]2)CCCN1 [veliparib]
[3]; 10 mg
  AUC(0-t): 351 ± 69 ng·h/mL
[3]; 300 mg
  AUC(0-t): 15000 ± 3090 ng·h/mL
[3]; po
  half-life: 6.1 ± 2.8 h
patients; veliparib bid
  single agent MTD: 400 mg
